pEC50: −log10 of the molar value.
Experiments:
[1] = biological target: T1, human Cystic Fibrosis Transmembrane Conductance Regulator (CFTR) harboring the ΔF508 mutation (Homo sapiens, UniProt P13569, DEL508-508); test: H441 cell ΔF508-CFTR-HRP cell surface assay (Emax and EC50); assay type: cell-based; conditions: for Emax: NCI-H441, NA = Not active
T1 construct: expressed in transfected cells; host or cells: H441 carcinoma line (G418-selected)
In short: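 H441 and 41o- bronchial epithelial cells expressing ΔF508-CFTR with an extracellular-loop-4 HRP tag were treated with a 15-point compound series (24.5–0.001 μM) for two nights, H441 at 27° C, 41o- at 37° C with 0.0005 mg/ml doxycycline. Surface HRP luminescence read; % of maximum VX809 signal and EC50 derived.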

[2] = biological target: T2, CFTR-mediated transepithelial chloride transport in primary human bronchial epithelial cells from a ΔF508 homozygous CF donor (Homo sapiens, UniProt P13569, DEL508-508); test: TECC24 recording of CFTR-mediated transepithelial chloride transport in CF-HBE cells (AUC fold over DMSO); assay type: cell-based; conditions: test agent 10 μM, 48 hours incubation, AUC of forskolin-stimulated IEQ relative to DMSO
T2 construct: Primary human bronchial epithelial cells from a ΔF508 homozygous CF donor; host or cells: primary CF-HBE cells, ΔF508 homozygous donor
In short: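 Equivalent Cl⁻ current was derived from transepithelial voltage and resistance, and its AUC from forskolin (10 μM) to CFTRinh-172 (20 μM) was divided by the DMSO AUC. Benzamil 10 μM blocked ENaC. Cells were ΔF508-homozygous primary bronchial epithelia pretreated 48 h at 36.5 °C in IL-13 medium.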

T2 sequence (P13569 with tags, fused parts or gaps DEL508-508): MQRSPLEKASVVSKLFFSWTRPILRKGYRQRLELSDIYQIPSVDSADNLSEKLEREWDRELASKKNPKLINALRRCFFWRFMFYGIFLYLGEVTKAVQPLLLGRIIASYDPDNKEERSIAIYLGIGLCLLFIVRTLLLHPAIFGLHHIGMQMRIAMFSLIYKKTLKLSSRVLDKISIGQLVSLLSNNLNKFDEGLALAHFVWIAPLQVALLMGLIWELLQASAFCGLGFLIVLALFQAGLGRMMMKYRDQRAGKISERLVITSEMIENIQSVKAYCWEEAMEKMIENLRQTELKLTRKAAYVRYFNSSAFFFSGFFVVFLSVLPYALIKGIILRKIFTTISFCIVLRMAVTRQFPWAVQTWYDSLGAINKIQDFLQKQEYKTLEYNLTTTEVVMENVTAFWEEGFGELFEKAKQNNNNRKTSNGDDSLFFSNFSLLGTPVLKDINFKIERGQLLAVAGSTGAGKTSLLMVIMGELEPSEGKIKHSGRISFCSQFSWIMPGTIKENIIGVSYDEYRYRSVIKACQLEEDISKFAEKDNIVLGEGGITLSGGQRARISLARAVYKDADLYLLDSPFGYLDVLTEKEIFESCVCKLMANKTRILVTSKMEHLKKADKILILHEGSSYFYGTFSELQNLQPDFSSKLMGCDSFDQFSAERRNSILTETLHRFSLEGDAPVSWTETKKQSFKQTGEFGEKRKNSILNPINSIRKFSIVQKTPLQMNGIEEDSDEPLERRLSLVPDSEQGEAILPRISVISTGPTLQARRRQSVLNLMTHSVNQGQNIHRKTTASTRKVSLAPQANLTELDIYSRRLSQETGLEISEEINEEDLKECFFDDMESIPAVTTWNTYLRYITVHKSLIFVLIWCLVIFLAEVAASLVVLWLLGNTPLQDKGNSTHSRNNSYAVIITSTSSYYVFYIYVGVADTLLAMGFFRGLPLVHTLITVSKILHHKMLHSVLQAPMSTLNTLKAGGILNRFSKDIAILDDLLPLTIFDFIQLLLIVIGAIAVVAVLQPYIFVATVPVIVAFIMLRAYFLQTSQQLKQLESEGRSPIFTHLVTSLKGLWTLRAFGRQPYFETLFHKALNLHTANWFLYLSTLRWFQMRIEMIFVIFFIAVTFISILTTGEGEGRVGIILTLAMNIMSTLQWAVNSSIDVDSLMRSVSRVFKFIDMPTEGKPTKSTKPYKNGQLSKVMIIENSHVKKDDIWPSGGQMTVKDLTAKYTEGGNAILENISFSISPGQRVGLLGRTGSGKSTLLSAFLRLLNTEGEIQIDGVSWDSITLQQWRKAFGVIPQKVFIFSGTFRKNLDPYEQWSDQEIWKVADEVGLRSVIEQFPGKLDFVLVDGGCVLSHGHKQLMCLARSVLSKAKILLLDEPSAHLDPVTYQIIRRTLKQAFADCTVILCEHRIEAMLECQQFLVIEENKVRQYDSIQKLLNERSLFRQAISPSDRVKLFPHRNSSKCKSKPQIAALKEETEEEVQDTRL
T1 sequence (P13569 with tags, fused parts or gaps DEL508-508): as above

Row | SMILES | pEC50 [1] | Emax [1] [%] | TECC24 AUC fold over DMSO @10 μM [2]
1 | O=C(N[C@H](C(=O)O)C(c1ccccc1)c1ccccc1)c1ccc2ccccc2c1OCc1ccc(C(F)(F)C(F)(F)F)cc1 [Example 131, (S)-2-(1-((4-(perfluoroethyl)benzyl)oxy)-2-naphthamido)-3,3-diphenylpropanoic Acid] | 7.00 | 204 | C (“C” refers to AUC @10 uM <4)
2 | CC(C)(C)[C@H](NC(=O)c1ccc2ccccc2c1OCc1ccc(C#N)cc1)C(=O)O [Example 31, (S)-2-(1-((4-cyanobenzyl)oxy)-2-naphthamido)-3,3-dimethylbutanoic Acid] | 5.10 | 77.1 | C (“C” refers to AUC @10 uM <4)
3 | O=C(NC(C(=O)O)C1(C(F)(F)F)CC1)c1ccc2ccc(F)cc2c1OCc1ccc(OC(F)(F)F)cc1 (stereo not shown) [Example 240, 2-(7-fluoro-1-((4-(trifluoromethoxy)benzyl)oxy)-2-naphthamido)-2-(1-(trifluoromethyl)cyclopropyl)acetic Acid] | 6.10 | 122 | C (“C” refers to AUC @10 uM <4)
4 | CC1([C@H](NC(=O)c2ccc3ccc(C(F)(F)F)cc3c2OCc2ccc(C(F)(F)F)cc2)C(=O)O)CCCC1 [Example 301, (S)-2-(1-methylcyclopentyl)-2-(7-(trifluoromethyl)-1-((4-(trifluoromethyl)benzyl)oxy)-2-naphthamido)acetic Acid] | 7.00 | 217 | A (“A” refers to AUC @10 uM >6)
5 | CC1(C(NC(=O)c2ccc3cc(F)ccc3c2OCc2ccc(SC(F)(F)F)cc2)C(=O)O)CCCCC1 (stereo not shown) [Example 69, 2-(6-fluoro-1-((4-((trifluoromethyl)thio)benzyl)oxy)-2-naphthamido)-2-(1-methylcyclohexyl)acetic Acid] | 6.40 | 57.7 | C (“C” refers to AUC @10 uM <4)
6 | CC(C)(C)[C@H](NC(=O)c1ccc2ccc(C#N)cc2c1OCc1ccc(C(F)(F)F)cc1)C(=O)O [Example 248, (2S)-2-[[7-cyano-1-[[4-(trifluoromethyl)phenyl]methoxy]naphthalene-2-carbonyl]amino]-3,3-dimethyl-butanoic Acid] | 5.82 | 206 | A (“A” refers to AUC @10 uM >6)
7 | O=C(N[C@H](C(=O)O)[C@H](O)c1ccccc1)c1ccc2ccccc2c1OCc1ccc(C(F)(F)F)cc1 [Example 129, (2S,3R)-3-hydroxy-3-phenyl-2-(1-((4-(trifluoromethyl)benzyl)oxy)-2-naphthamido)propanoic Acid] | 4.92 | 29.4 | C (“C” refers to AUC @10 uM <4)
8 | CC(C)(C)[C@H](NC(=O)c1ccc2ccc(C#N)cc2c1OCc1ccc(OC(F)(F)F)cc1)C(=O)O [Example 254, (2S)-2-[[7-cyano-1-[[4-(trifluoromethoxy)phenyl]methoxy]naphthalene-2-carbonyl]amino]-3,3-dimethyl-butanoic Acid] | 6.15 | 176 | A (“A” refers to AUC @10 uM >6)
9 | C[C@@H](OCc1ccccc1)[C@H](NC(=O)c1ccc2ccccc2c1OCc1ccc(Cl)c(Cl)c1)C(=O)O (stereo in doubt) [Example 206] | – | 4.7 | C (“C” refers to AUC @10 uM <4)
10 | O=C(N[C@H](C(=O)O)C(c1ccccc1)c1ccccc1)c1ccc2ccccc2c1OCc1nc2ccccc2s1 [Example 212, (S)-2-(1-(benzo[d]thiazol-2-ylmethoxy)-2-naphthamido)-3,3-diphenylpropanoic Acid] | 5.92 | 141 | C (“C” refers to AUC @10 uM <4)
11 | Cc1ccc2ccc(C(=O)N[C@@H](C(=O)O)C(C)(C)C)c(OCc3ccc(C(F)(F)F)cc3)c2c1 [Example 284, (R)-3,3-dimethyl-2-(7-methyl-1-((4-(trifluoromethyl)benzyl)oxy)-2-naphthamido) butanoic Acid] | 6.30 | 173 | C (“C” refers to AUC @10 uM <4)
12 | CCC(C)(C)[C@H](NC(=O)c1ccc2c(F)cccc2c1OCc1ccc(C(F)(F)F)cc1)C(=O)O [Example 230, (2S)-2-[[5-fluoro-1-[[4-(trifluoromethyl)phenyl]methoxy]naphthalene-2-carbonyl]amino]-3,3-dimethyl-pentanoic Acid] | 6.22 | 152 | A (“A” refers to AUC @10 uM >6)
13 | O=C(N[C@@H](Cc1ccccc1)C(=O)O)c1ccc2ccccc2c1OCc1ccccc1C(F)(F)F [Example 93, (1-((2-(trifluoromethyl)benzyl)oxy)-2-naphthoyl)-L-phenylalanine] | – | 13.1 | C (“C” refers to AUC @10 uM <4)
14 | CC1([C@H](NC(=O)c2ccc3ccc(Cl)cc3c2OCc2ccc(C(F)(F)F)cc2)C(=O)O)CCC1 [Example 300, (S)-2-(7-chloro-1-((4-(trifluoromethyl)benzyl)oxy)-2-naphthamido)-2-(1-methylcyclobutyl)acetic Acid] | 6.70 | 232 | A (“A” refers to AUC @10 uM >6)
15 | CCC(C)(C)[C@H](NC(=O)c1ccc2ccc(Cl)cc2c1OCc1ccc(OC(F)(F)F)cc1)C(=O)O [Example 277, (S)-2-(7-chloro-1-((4-(trifluoromethoxy)benzyl)oxy)-2-naphthamido)-3,3-dimethylpentanoic Acid] | 7.00 | 186 | A (“A” refers to AUC @10 uM >6)
16 | CC(C)(C)[C@H](NC(=O)c1ccc2ccccc2c1OCc1ccc(Cl)c(Cl)c1)C(=O)O [Example 47, (S)-2-(1-((3,4-dichlorobenzyl)oxy)-2-naphthamido)-3,3-dimethylbutanoic Acid] | 6.05 | 117 | C (“C” refers to AUC @10 uM <4)
17 | Cc1ccc2c(OCc3ccc(C(F)(F)F)cc3)c(C(=O)N[C@H](C(=O)O)C(C)(C)C)ccc2c1 [Example 233, (2S)-3,3-dimethyl-2-[[6-methyl-1-[[4-(trifluoromethyl)phenyl]methoxy]naphthalene-2-carbonyl]amino]butanoic Acid] | 4.91 | 156 | A (“A” refers to AUC @10 uM >6)
18 | CCC(C)(C)[C@H](NC(=O)c1ccc2ccc(C)cc2c1OCc1ccc(C(F)(F)F)cc1)C(=O)O [Example 288, (S)-3,3-dimethyl-2-(7-methyl-1-((4-(trifluoromethyl)benzyl)oxy)-2-naphthamido)pentanoic Acid] | 7.00 | 404 | A (“A” refers to AUC @10 uM >6)
19 | CC(C)(C)[C@H](NC(=O)c1ccc2ccccc2c1OCc1ccc(SC(F)(F)F)cc1)C(=O)O [Example 35, (S)-3,3-dimethyl-2-(1-((4-((trifluoromethyl)thio)benzyl)oxy)-2-naphthamido)butanoic Acid] | 6.22 | 86.4 | A (“A” refers to AUC @10 uM >6)
20 | CC(C)(C)[C@H](NC(=O)c1cc(Br)c2ccccc2c1OCc1ccc(C(F)(F)F)cc1)C(=O)O [Example 51, (S)-2-(4-bromo-1-((4-(trifluoromethyl)benzyl)oxy)-2-naphthamido)-3,3-dimethylbutanoic Acid] | 6.40 | 200 | C (“C” refers to AUC @10 uM <4)
21 | CC(C)(C)[C@@H](NC(=O)c1ccc2ccc(C(F)(F)F)cc2c1OCc1ccc(C(F)(F)F)cc1)C(=O)O [Example 307, (R)-3,3-dimethyl-2-(7-(trifluoromethyl)-1-((4-(trifluoromethyl)benzyl)oxy)-2-naphthamido)butanoic Acid] | 6.22 | 81.1 | C (“C” refers to AUC @10 uM <4)
22 | CCC(C)(C)[C@H](NC(=O)c1ccc2cc(F)ccc2c1OCc1ccc(SC(F)(F)F)cc1)C(=O)O [Example 84, (S)-2-(6-fluoro-1-((4-((trifluoromethyl)thio)benzyl)oxy)-2-naphthamido)-3,3-dimethylpentanoic Acid] | 6.30 | 80.5 | B (“B” refers to AUC @10 uM between 4-6)
23 | CCC(C)(C)[C@H](NC(=O)c1ccc2ccc(OC)cc2c1OCc1ccc(C(F)(F)F)cc1)C(=O)O [Example 309, (S)-2-(7-methoxy-1-((4-(trifluoromethyl)benzyl)oxy)-2-naphthamido)-3,3-dimethylpentanoic Acid] | 6.52 | 349 | A (“A” refers to AUC @10 uM >6)
24 | C[C@@H](OC(C)(C)C)C(NC(=O)c1ccc2ccccc2c1OCc1ccc(C(F)(F)F)cc1)C(=O)O (stereo partly drawn) [Example 133, (3R)-3-(tert-butoxy)-2-(1-((4-(trifluoromethyl)benzyl)oxy)-2-naphthamido)butanoic Acid] | 5.92 | 151 | A (“A” refers to AUC @10 uM >6)
25 | CCC(C)(C)[C@H](NC(=O)c1ccc2ccc(C(F)F)cc2c1OCc1ccc(C(F)(F)F)cc1)C(=O)O [Example 242, (2S)-2-[[7-(difluoromethyl)-1-[[4-(trifluoromethyl)phenyl]methoxy]naphthalene-2-carbonyl]amino]-3,3-dimethyl-pentanoic Acid] | 7.00 | 368 | A (“A” refers to AUC @10 uM >6)

— US12630498B2 (Genzyme Corporation, priority 2019, dated 2026)
